Results reported in article PMC10609273, “Radiosynthesis and Early Evaluation of a Positron Emission Tomography Imaging Probe [^18F]AGAL Targeting Alpha-Galactosidase A Enzyme for Fabry Disease” (Molecules, 2023).

Experiments:
Format in all cases: in vitro ADME
[1] = In vitro liver microsomal metabolism study, mouse; conditions: mouse liver microsomes
Procedure: (§1) Metabolic stability was assessed by incubating compounds in the presence of human, rat, and mouse liver microsomal fractions (Xenotech, Kansas City, KS, USA). All chemicals and reagents, including control compounds, were purchased from commercial sources such as Sigma-Aldrich (St. Louis, MO, USA) or Toronto Research Chemicals (North York, ON, Canada). Liver microsomal incubations were conducted with 100 mM phosphate buffer, 0.5 mg/mL of liver microsomal protein, 2 mM NADPH, 2.5 mM UDPGA, 3 mM MgCl2, alamethicin, and 1 μM test article for a total incubation volume of 80 µL. All reagents except the liver microsomes were mixed together and aliquoted (60 μL) into 96-well plates. The reaction was initiated by adding the microsomes (20 μL). At 0, 3, 7, 12, 20, and 30 min time points, the reactions were terminated with the addition of acetonitrile-containing carbutamide (as an internal standard). The terminated samples were then centrifuged at 2 °C to pellet the protein and the supernatant was injected onto an LC–MS. The test article was monitored for loss over time and the t1/2 was determined. The calculated t1/2 was then used as described below to determine the Eh (hepatic extraction ratio) for both human and rat.
(§2) The intrinsic clearance (CLint), hepatic clearance (CLh), and hepatic extraction ratio (Eh) were calculated using the equations below. CLint = (0.693/t1/2 in vitro) × (mL incubation volume/mg microsomal protein) × (X mg of microsomal protein/gram of liver) × (Y g of liver/kg of body weight)(1) CLh = Q × CLint/Q + CLint(2) Eh = CLh/Q(3) where: • CLint = intrinsic clearance (calculated from microsomal incubations) • X = 40 for human, 41.5 for rat and 45 for mouse • Y = 21.4 for human, 40 for rat and 50 for mouse • t1/2 = half-life • CLh = hepatic clearance • Q = liver blood flow rate = 1.24 L/h/kg for human, 4.8 L/h/kg for rat, and 5.4 L/h/kg for mouse • Eh = hepatic extraction ratio • CLh = hepatic clearance

[2] = In vitro liver microsomal metabolism study, rat; conditions: rat liver microsomes
Procedure: as §1, §2

[3] = Plasma stability study, human
Procedure: Briefly, plasma stability was assessed by incubating compounds in the presence of human (pooled) and mouse (pooled) plasma (Bioreclamation, Westbury, NY, USA). All chemicals and reagents including control compounds were purchased from commercial sources such as Sigma-Aldrich or Toronto Research Chemicals. Plasma incubations were conducted by placing plasma (95 μL) in a 96-well microtiter plate and warming to 37 °C for 5 min. The reaction was initiated with the addition of the test article (5 μL of 20 μM), totaling 100 μL in incubation volume. At 0, 15, 30, 60, and 120 min time points, the reactions were terminated with the addition of acetonitrile-containing carbutamide (as an internal standard). The terminated samples were then centrifuged at 2 °C to pellet the protein, and the supernatant was injected onto an LC–MS. The test article was monitored for loss over time and the t1/2 was determined.

For `O=C(CCCCCCCn1cc(CCCF)nn1)N1[C@@H]2[C@H](O)[C@@H](O)[C@@H](O)[C@@H](CO)[C@@H]21` [AGAL], the CLh [1] was 68.8 mL/min/kg, the “Eh (hepatic extraction ratio)” value [1] was 0.766 and the “microsomal stability, clearance in words” value [1] was “highly cleared”. For the same compound, the CLint scaled at 1 µM ([1]; 1 μM, NADPH + UDPGA) was 293 mL/min/kg, the CLh [2] was 55.7 mL/min/kg and the “Eh (hepatic extraction ratio)” value [2] was 0.695. For the same compound, the “microsomal stability, clearance in words” value [2] was “moderately cleared”, the CLint scaled at 1 µM ([2]; 1 μM, NADPH + UDPGA) was 182 mL/min/kg and the parent remaining ([3]; 30 min post-incubation) was 93%. The half-life at 1 µM ([3]; pooled plasma, 37 °C, read-out: Plasma Half-Life, t1/2) was 3.47 h.
